Reference: the NIST ThermoML archive (doi:10.1021/acs.jced.5b00105)

Assay: refractive index (Na D-line) (dimensionless); xn = mol fraction of the nth substance listed
Conditions: 100 kPa, Liquid

CC1CCCCC1 [methylcyclohexane] + CC(C)CC(C)(C)C
refractive index
Conditions	293.15 K	298.15 K	303.15 K	308.15 K	313.15 K	318.15 K	323.15 K
x1 = 0.0999	–	1.3912	–	1.3876	–	1.3811	1.3789
x1 = 0.1012	1.395	–	1.3903	–	1.3861	–	–
x1 = 0.1999	–	1.3938	–	1.3902	–	1.3844	1.3819
x1 = 0.2003	1.3975	–	1.3929	–	1.3887	–	–
x1 = 0.2997	–	1.3966	–	1.3942	–	1.3871	1.3846
x1 = 0.3001	1.4	–	1.3958	–	1.3916	–	–
x1 = 0.4	–	1.3997	–	1.3962	–	1.3898	1.3869
x1 = 0.4019	1.403	–	1.3988	–	1.3947	–	–
x1 = 0.5	–	1.4028	–	1.3998	–	1.393	1.3905
x1 = 0.5008	1.406	–	1.4018	–	1.3978	–	–
x1 = 0.6	1.409	1.4059	1.4049	1.4029	1.401	1.3962	1.3938
x1 = 0.6998	1.4125	–	1.4082	–	1.4043	–	–
x1 = 0.7001	–	1.4092	–	1.4064	–	1.3993	1.397
x1 = 0.7999	–	1.4127	–	1.4097	–	1.403	1.4
x1 = 0.8	1.4158	–	1.4117	–	1.4077	–	–
x1 = 0.9	1.4195	1.4161	1.4153	1.4132	1.4114	1.4066	1.4039
x1 = 1	1.4232	1.4199	1.419	1.4168	1.415	1.4102	1.4078
